Among the test systems are 786-0; EKVX; HCT-116; IGROV-1; K562; LOX IMVI; MOLT-4; NCI-H522; RPMI-8226; RXF 393; SF-268; SF-295; SK-MEL-28; SK-MEL-5; U-251; UO-31; HT-29; NCI-H226.
What all share (assay): NCI anticancer screen, dose series, 48 h

The structures appear in SMILES notation.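 Following 48 hours of exposure in 96-well plates, responses at five concentrations were used to interpolate endpoints linearly. GI50 marks 50% less growth.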 Active and inactive are the calls of the source. Cut-off read from the data, not from the text of the source: active = GI50 up to about 1.1 µM and inactive = higher.

On to `C=CCn1c(=O)n(CC=C)c(=O)n(CC=C)c1=O`, for which the GI50 in the experiment with 786-0, in the experiment with EKVX, in the experiment on HCT-116, in the experiment with IGROV-1, with K562 and with LOX IMVI was > 100 µM (inactive) in each case. The GI50 in the experiment with MOLT-4, with NCI-H522, in the experiment with RPMI-8226, in the experiment with RXF 393, with SF-268 and in the experiment with SF-295 was > 100 µM (inactive) throughout. Besides, the GI50 with SK-MEL-28, in the experiment with SK-MEL-5, with U-251 and in the experiment with UO-31 was > 100 µM (inactive) each time.

`COc1cc2c(cc1OC)C1Cc3ccc(OC)c(OC)c3C[N+]1([O-])CC2` (centres undefined): the GI50 in the experiment with 786-0, in the experiment on EKVX, with HCT-116, in the experiment on HT-29, with K562 and with MOLT-4 was > 100 µM (inactive) in each case. The GI50 in the experiment on NCI-H522 was > 100 µM (inactive); with RPMI-8226, 74.5 µM (inactive); in the experiment with SF-268 it was > 100 µM (inactive); with SF-295, > 100 µM (inactive); in the experiment on SK-MEL-28, > 100 µM (inactive); in the experiment on SK-MEL-5 it was > 100 µM (inactive). Besides, the GI50 in the experiment with U-251 and with UO-31 was > 100 µM (inactive) in each case.

`CC(C)N(C(=O)C12C3C4C5(C(=O)O)C(C1C35I)C42C(=O)O)C(C)C` (centres undefined): the GI50 with 786-0, in the experiment on EKVX, in the experiment on HCT-116, in the experiment on HT-29, with IGROV-1 and in the experiment with K562 was > 100 µM (inactive) in each case. For the same compound, the GI50 in the experiment on MOLT-4, with NCI-H226, with NCI-H522, in the experiment on SF-268, in the experiment with SF-295 and in the experiment with SK-MEL-28 was > 100 µM (inactive) throughout. Besides, the GI50 in the experiment on SK-MEL-5, with U-251 and in the experiment with UO-31 was > 100 µM (inactive) each time.

Take `Clc1ccc(C(n2cc(Br)cn2)n2cc(Br)cn2)cc1`: the GI50 was 14.1 µM (inactive) with 786-0; 19.7 µM (inactive) in the experiment with EKVX; 13.2 µM (inactive) in the experiment on HT-29; 18.7 µM (inactive) with IGROV-1; 18 µM (inactive) with K562; 16.5 µM (inactive) with MOLT-4. Also, the GI50 is 8.91 µM (inactive) in the experiment with NCI-H226; 13.3 µM (inactive) in the experiment with NCI-H522; 19.9 µM (inactive) with RPMI-8226; 14.5 µM (inactive) in the experiment on RXF 393; 16.4 µM (inactive) in the experiment on SF-268; 15 µM (inactive) with SF-295. The GI50 is 17.8 µM (inactive) in the experiment on SK-MEL-28, 14 µM (inactive) in the experiment with SK-MEL-5, 16.3 µM (inactive) with U-251 and 0.267 µM (active) in the experiment on UO-31.

Take `COC(=O)c1nn(C(=N)c2ccc(Cl)cc2)c2c1CCCCC2`: the GI50 in the experiment with 786-0, with HCT-116, in the experiment on HT-29, in the experiment with IGROV-1, in the experiment on K562 and with LOX IMVI was > 100 µM (inactive) throughout. Besides, the GI50 in the experiment with MOLT-4, in the experiment with NCI-H226, in the experiment on NCI-H522, in the experiment with RPMI-8226, in the experiment with RXF 393 and in the experiment on SF-268 was > 100 µM (inactive) throughout. Besides, the GI50 in the experiment with SF-295, with SK-MEL-28, with SK-MEL-5, in the experiment with U-251 and in the experiment on UO-31 was > 100 µM (inactive) each time.

In the case of `O=C(/C=C/c1ccc([N+](=O)[O-])cc1)c1ccc(NCc2nc3ccccc3[nH]2)cc1`, the GI50 in the experiment with 786-0 was 3.13 µM (inactive); with EKVX it was 7.69 µM (inactive); in the experiment on HT-29, 3.44 µM (inactive); with IGROV-1, 4.48 µM (inactive); in the experiment with K562 it was 2.3 µM (inactive); in the experiment on LOX IMVI, 2.43 µM (inactive). The GI50 in the experiment with MOLT-4 was 3.51 µM (inactive); in the experiment on NCI-H522, 3.26 µM (inactive); in the experiment with SF-268 it was 5.71 µM (inactive); with SF-295, 3.86 µM (inactive); in the experiment on SK-MEL-28, 13 µM (inactive); with SK-MEL-5, 5.18 µM (inactive). Besides, the results for the GI50 with U-251 and in the experiment with UO-31 were 1.75 µM (inactive) and 4.98 µM (inactive), respectively.

Turning to `COC1=NCc2ccccc2-c2ccccc21`, the GI50 in the experiment with 786-0, in the experiment with HCT-116, in the experiment on HT-29, in the experiment with K562, in the experiment on LOX IMVI and with MOLT-4 was > 100 µM (inactive) in each case. Also, the GI50 with NCI-H226, in the experiment on NCI-H522, in the experiment with RXF 393, with SF-268, with SF-295 and with SK-MEL-28 was > 100 µM (inactive) in each case. Also, the figures for the GI50 in the experiment on SK-MEL-5, in the experiment on U-251 and in the experiment on UO-31 were > 100 µM (inactive), > 100 µM (inactive) and 20.2 µM (inactive), respectively.

Take `COC(=O)C1=C(c2cc(OC)c(OC)c(OC)c2)OC(c2ccc(OC)c(OC)c2)C1` (centres undefined): the GI50 in the experiment on 786-0 was 73.3 µM (inactive); with EKVX, > 100 µM (inactive); with HCT-116, 43.8 µM (inactive); in the experiment on HT-29, 38.7 µM (inactive); in the experiment with IGROV-1, 61.1 µM (inactive); with K562 it was 45.1 µM (inactive). Besides, the GI50 with LOX IMVI was 29.3 µM (inactive); in the experiment with MOLT-4, 18.9 µM (inactive); in the experiment with NCI-H226 it was 96.6 µM (inactive); in the experiment with RPMI-8226 it was 75.2 µM (inactive); in the experiment with RXF 393 it was 35.9 µM (inactive); in the experiment on SF-268, 55.8 µM (inactive). The GI50 is 35.6 µM (inactive) in the experiment on SF-295; 79.8 µM (inactive) in the experiment with SK-MEL-28; 29.7 µM (inactive) in the experiment on SK-MEL-5; 42 µM (inactive) with U-251; 38.9 µM (inactive) in the experiment with UO-31.

On to `CN(C)C(=S)/N=c1\ss/c(=N\S(=O)(=O)c2ccccc2)n1N(C)C`, for which the GI50 was 45 µM (inactive) in the experiment on 786-0; > 100 µM (inactive) in the experiment with EKVX; 75 µM (inactive) in the experiment with HCT-116; > 100 µM (inactive) in the experiment with IGROV-1; 59.8 µM (inactive) with K562; > 100 µM (inactive) in the experiment on MOLT-4. Besides, the GI50 is > 100 µM (inactive) with NCI-H226; 4.92 µM (inactive) in the experiment with NCI-H522; 62.7 µM (inactive) with RPMI-8226; 9.91 µM (inactive) with RXF 393; 69.8 µM (inactive) with SF-268; > 100 µM (inactive) in the experiment on SK-MEL-28. Moreover, the GI50 with SK-MEL-5, with U-251 and in the experiment with UO-31 was > 100 µM (inactive) throughout.

These data come from ChEMBL document CHEMBL1201862, “PubChem BioAssay data set” (2004).
